The text below walks through data of PMC10669572, “Norlobaridone Inhibits Quorum Sensing-Dependent Biofilm Formation and Some Virulence Factors in Pseudomonas aeruginosa by Disrupting Its Transcriptional Activator Protein LasR Dimerization” (Biomolecules, 2023).

In brackets after ≈: the same amount, converted by molar mass. Where only a bound is given, the exact number is not on record here.

Series [1] deals with P. aeruginosa. As to the kind of experiment: microbe, parasite or virus in culture. Further details: antibacterial MIC determination. Conditions: Pseudomonas aeruginosa. On the procedure: At this dose, NBD had no effect on the growth of P. aeruginosa, as shown by the fact that the growth curve of the bacteria in the presence of 5 μg/mL NBD was identical to the curve in the absence of the treatment (Figure S1).

The test system of the next series is E. coli. The experiment in a line: microbe, parasite or virus in culture. Also noted: antibacterial MIC determination. Conditions: Escherichia coli.
The test system of series [2] is P. aeruginosa. The experiment in a line: microbe, parasite or virus in culture. Also noted: crystal violet biofilm formation assay in 96-well plates, OD570. As to conditions: Pseudomonas aeruginosa, 24 h, read-out: % P. aeruginosa biofilm inhibition. On the procedure:
In 96-well polystyrene plates, the influence of NBD on biofilm growth was studied. The experiment was carried out in the manner reported by Stepanovi et al., with a few minor changes. P. aeruginosa cells were cultured in LB medium, vortexed, then diluted 1:100 in new LB media to a final concentration of 1.5 × 10^8 CFU/mL (0.5 McFarland) for biofilm development. Cells were then cultured for 24 h at 37 °C with or without NBD. Following that, non-adherent bacteria were washed away in sterile phosphate-buffered saline (PBS), and adherent bacteria were stained for 15 min with a 1% crystal violet solution. Water was used to clean the wells in order to remove any remaining stains. The absorbance of the crystal violet solution at OD570 was determined by spectrophotometric analysis. Wells with phosphate buffer-enriched media were utilized as negative controls. As a positive control, azithromycin (AZM) was used, which inhibits biofilm formation at sub-inhibitory concentrations. […] At this dose, NBD had no effect on the growth of P. aeruginosa, as shown by the fact that the growth curve of the bacteria in the presence of 5 μg/mL NBD was identical to the curve in the absence of the treatment (Figure S1).

Series [3] deals with the molecule itself. As to the kind of experiment: AUC; sedimentation velocity, 141,900 x g, 20 °C, 20 mM Hepes pH 7.5, 100 mM NaCl; LasR 0.5 and 1 mg/mL produced with and in the presence of 100 μM OdDHL; c(S) and c(M) distributions in SEDFIT.

A word on the inhibition: it is the drop in the measured response relative to a control, in per cent. Consider `O=c1oc2c(O)c(O)cc3c(=O)oc4c(O)c(O)cc1c4c23` [Ellagic acid], for which the MIC in the series with P. aeruginosa [1] and in the series with E. coli was 128 mg/L (≈ 424 µM) in each case. The inhibition at 5 µg/mL with P. aeruginosa [2] is 22.8%.
As to `O=C(O)c1cc(O)c(O)c(O)c1` [Gallic acid], the MIC against P. aeruginosa [1] and against E. coli was above 256 mg/L throughout. The inhibition at 5 µg/mL with P. aeruginosa [2] is 21.4%.
For `CCCCCc1cc(O)cc2c1Oc1cc(O)cc(C(=O)CCCC)c1C(=O)O2` [NBD, norlobaridone], the MIC against P. aeruginosa [1] and in the series on E. coli was 128 mg/L (≈ 321 µM) throughout. For the same molecule, the inhibition at 5 µg/mL in the series on P. aeruginosa [2] was found to be 64.6%.
For `O=C(O)c1ccc(O)cc1` [P-hydroxy benzoic acid], the figures for the MIC against P. aeruginosa [1] and in the series on E. coli were 128 mg/L (≈ 927 µM) and above 256 mg/L, respectively. Besides, in the series with P. aeruginosa [2], the inhibition at 5 µg/mL came out at 12.9%.
With `CCCCCc1ccccc1O` [Pentylphenol], the MIC with P. aeruginosa [1] was 256 mg/L (≈ 1560 µM); with E. coli, above 256 mg/L. Further, the inhibition at 5 µg/mL in the series on P. aeruginosa [2] worked out at 11.4%.
For `Oc1cc(O)cc(O)c1` [Phloroglucinol] the same measures were 64 mg/L (≈ 507 µM), 64 mg/L (≈ 507 µM) and 31.1%.
Turning to `Oc1cccc(O)c1` [Resorcinol], the MIC against P. aeruginosa [1] and with E. coli was 128 mg/L (≈ 1160 µM) in each case. The inhibition at 5 µg/mL with P. aeruginosa [2] came to 27.7%.
Take `CC(=O)c1c(O)c(C)c(O)c(Cc2c(O)c3c(c(C(=O)/C=C/c4ccccc4)c2O)OC(C)(C)C=C3)c1O` [Rottlerin]: the MIC against P. aeruginosa [1] and in the series on E. coli was above 256 mg/L throughout. In addition, the inhibition at 5 µg/mL in the series with P. aeruginosa [2] worked out at 7.9%.

B1: LasR (Pseudomonas aeruginosa transcriptional activator protein, LuxR-type quorum sensing receptor) (natural protein)
chain: MALVDGFLELERSSGKLEWSAILQKMASDLGFSKILFGLLPKDSQDYENAFIVGNYPAAWREHYDRAGYARVDPTVSHCTQSVLPIFWEPSIYQTRKQHEFFEEASAAGLVYGLTMPLHGARGELGALSLSVEAENRAEANRFMESVLPTLWMLKDYALQSGAGLAFEHPVSKPVVLTSREKEVLQWCAIGKTSWEISVICNCSEANVNFHMGNIRRKFGVTSRRVAAIMAVNLGLITL
notes: predicted molecular weight of the single chain 26.62 kD; Produced and kept with a small-molecule ligand: odDHL (dimer) or norlobaridone, NBD (monomer); also called LasR-odDHL; NBD-LasR; source: E. coli BL21 (pET23b, 1 mM IPTG, 18 °C overnight) in the presence of 100 μM OdDHL or 100 μM NBD; purified (heparin column, MonoQ, S200 size exclusion)
In general, stoichiometry N refers to the number of molecules, sites or subunits per partner or assembly. Regarding B1, in series [3], the “stoichiometry N” value came to 2.
